The source of these data is US20030181507A1, “Use of 3-substituted oxindole derivatives as kcnq potassium channel modulators” (priority 2000, published 2003).

One experiment addresses T1, KCNQ5 (Homo sapiens, UniProt Q9NR82).
T1 construct: expressed in transfected cells; host or cells: HEK-293
Description: Whole-cell voltage clamp of KCNQ5 stably expressed in HEK-293 cells. It counts as cell-based. The conditions noted are these: 10 μM, holding −90 mV, step to −30 mV. As for the experimental part: (§1) KCNQ4 and KCNQ5 was sub-cloned into the mammalian expression vector pNS1n (NeuroSearch), a custom-designed derivative of pcDNA3Neo (InVitrogen). HEK-293 cells (American Type Culture Collection) were grown in DMEM (Life Technologies) supplemented with 10% FCS (Life Technologies) at 37° C. in 5% CO2.
(§2) One day prior to transfection, 10^6 cells were plated in a cell culture T25 flask (Nunc). Cells were transfected with 2.5 μg of the plasmid pNS1n_KCNQ4 or with 2.5 μg of the plasmid pNS1n_KCNQ5 using Lipofectamine (Life Technologies) according to the manufacturer's instructions. Cells transfected with pNS1n_KCNQ4 or pNS1n_KCNQ5 were selected in media supplemented with 0.5 mg/ml geneticin (G418; Life Technologies).
(§3) Single clones were picked and propagated in selection media for five passages after which they were considered stable. Following the cells were cultured in regular medium without selection agent.
Expression of functional KCNQ4 channels or KCNQ5 channels was verified by patch-clamp measurements. […]
(§4) Whole-cell currents were recorded using a HEKA EPC-9 amplifier and borosilicate glass micropipettes with tip resistances of 1.5-3 MΩ. […]
The currents were measured from a cell patch clamped in the whole-cell voltage clamp configuration. […]
The currents recorded in the absence (control) and in the presence of 10 μM of the reference M current blocker XE-991 is shown in the panel to the left.

Experiment [1] addresses T2, KCNQ4 (Homo sapiens, UniProt P56696).
T2 construct: expressed in transfected cells; host or cells: HEK-293
Description: Whole-cell voltage clamp of KCNQ4 stably expressed in HEK-293 cells. It counts as cell-based. As for the experimental part: as §1, §2
Single clones were picked and propagated in selection media for five passages after which they were considered stable. Following the cells were cultured in regular medium without selection agent. […]
as §4
The currents were measured in voltage mode using the whole-cell configuration of the patch clamp technique. […]
The experimental conditions was as described above, but in this experiment the depolarising potential ranged from −120 mV to +40 mV before a step back to −120 mV where brief inward tail currents were recorded. […]

Experiment [2] has as its target T2, KCNQ4. Kind of experiment: Membrane potential in current clamp mode, KCNQ4 expressing cell. The conditions noted are these: FIG. 3; for membrane potential after addition of compound: 10 μM in bath solution, whole cell, initial resting potential around −60 mV, sequential additions to same cell. It counts as cell-based. As for the experimental part: as §1, §2, §3
Expression of functional KCNQ4 channels or KCNQ5 channels was verified by patch-clamp measurements.
Transfected cells were cultured on glass cover slips (Ø=3 mm), which were transferred to a small recording chamber. The chamber was perfused with extracellular solutions at a rate of 1 ml/min giving rise to full exchange of the chamber volume (15 μl) each second.
Whole-cell currents were recorded using a HEKA EPC-9 amplifier and borosilicate glass micropipettes with tip resistances of 1.5-3 MΩ. Series resistances were below 5 MΩ, mostly stayed constant during the experiment and were compensated by 70%. The currents were not leak-subtracted.
All experiments were performed at room temperature (21-25° C.). Igor software (WaveMetrics, Lake Oswego, Oreg.) was used for the analysis.
The bath solution consisted of 144 mM NaCl, 4 mM KCl, 2 mM CaCl2, 1 mM MgCl2 and 10 mM HEPES (pH adjusted to 7.4). The pipette solution consisted of 144 mM KCl, 5.4 mM CaCl2, 1.8 mM MgCl2, 4 mM NaATP, 0.4 mM GTP, 10 mM EGTA and 10 mM HEPES (pH adjusted to 7.2).
The membrane potential was measured in current clamp mode using the whole cell configuration of the patch clamp technique. A resting membrane potential of around −60 mV was initially recorded from this cell and the addition of 10 μM Compound 1 to the bath solution induced a hyper-polarisation of the membrane potential to −83 mV.
After washout of Compound 1, the membrane potential returned to −69 mV, and subsequent addition of 10 μM Retigabine, a KCNQ activator, induced a faster but smaller hyperpolarisation to a membrane potential of −76 mV.
The compounds were present in the bath solution during the times indicated by the bars.

Another experiment has as its system KCNQ channels. As to conditions: background statement; cited from earlier work.
The next experiment addresses BK channels (Homo sapiens, UniProt Q12791). The conditions noted are these: background statement; cited from earlier work.

Chain of BK channels (Q12791 whole entry): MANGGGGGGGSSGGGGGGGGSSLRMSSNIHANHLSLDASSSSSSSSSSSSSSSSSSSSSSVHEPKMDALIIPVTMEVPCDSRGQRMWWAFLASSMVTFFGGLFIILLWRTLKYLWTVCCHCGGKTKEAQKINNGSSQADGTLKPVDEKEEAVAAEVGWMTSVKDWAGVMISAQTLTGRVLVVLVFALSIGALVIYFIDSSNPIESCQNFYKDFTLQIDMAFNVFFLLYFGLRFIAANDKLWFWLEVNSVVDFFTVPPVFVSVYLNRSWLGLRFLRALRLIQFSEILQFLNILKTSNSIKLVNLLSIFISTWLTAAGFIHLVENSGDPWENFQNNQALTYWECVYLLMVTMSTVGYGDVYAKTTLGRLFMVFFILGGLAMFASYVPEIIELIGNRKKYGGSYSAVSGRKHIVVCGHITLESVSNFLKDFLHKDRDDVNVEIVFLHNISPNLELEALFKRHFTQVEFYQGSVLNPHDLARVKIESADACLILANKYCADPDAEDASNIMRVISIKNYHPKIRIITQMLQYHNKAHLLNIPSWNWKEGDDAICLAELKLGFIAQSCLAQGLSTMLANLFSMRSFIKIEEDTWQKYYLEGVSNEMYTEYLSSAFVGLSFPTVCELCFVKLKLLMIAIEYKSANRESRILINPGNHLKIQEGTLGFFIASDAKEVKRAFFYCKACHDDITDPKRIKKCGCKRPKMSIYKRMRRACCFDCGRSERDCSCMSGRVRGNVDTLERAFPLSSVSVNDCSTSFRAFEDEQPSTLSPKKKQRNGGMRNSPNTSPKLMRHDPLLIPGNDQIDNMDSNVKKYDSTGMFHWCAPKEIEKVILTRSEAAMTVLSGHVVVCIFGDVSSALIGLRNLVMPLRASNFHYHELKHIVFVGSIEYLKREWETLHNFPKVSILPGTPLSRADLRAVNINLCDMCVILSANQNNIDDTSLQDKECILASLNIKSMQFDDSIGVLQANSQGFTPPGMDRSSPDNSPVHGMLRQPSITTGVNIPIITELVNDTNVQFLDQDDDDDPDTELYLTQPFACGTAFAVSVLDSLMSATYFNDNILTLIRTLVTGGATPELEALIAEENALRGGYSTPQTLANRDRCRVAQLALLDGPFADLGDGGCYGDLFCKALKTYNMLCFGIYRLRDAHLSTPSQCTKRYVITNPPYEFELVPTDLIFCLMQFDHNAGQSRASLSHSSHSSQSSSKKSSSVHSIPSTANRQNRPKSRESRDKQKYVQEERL

As for `COc1ccc(Cl)cc1C1(F)C(=O)Nc2cc(C(F)(F)F)ccc21` (racemic) [Compound 1, (±)-3-(5-chloro-2-methoxyphenyl)-1,3-dihydro-3-fluoro-6-(trifluoromethyl)-2H-indol-2-one], the “effect on KCNQ5 currents” value at KCNQ5 (after washout of XE-991, FIG. 4) was “activation”. Also, the “changes in IV relation and activation curve” value at KCNQ4 [1] (3 μM, depolarising potential −120 mV to +40 mV, FIG. 2) was “changes in IV relation and activation curve”. The “activation of KCNQ4 currents” value on KCNQ4 [1] (0.1, 0.3, 1, 3 and 10 μM, holding −90 mV, step to −40 mV, HEK-293 cells, FIG. 1) is recorded as “dose-dependent activation”. The “membrane potential after addition of compound” value at KCNQ4 [2] is −83 mV. For the same compound, the “membrane potential after washout of compound” value at KCNQ4 [2] (after washout of 10 μM compound) was −69 mV.
Turning to `O=C1N(c2ccccc2)c2ccccc2C1(Cc1ccncc1)Cc1ccncc1` [Linopiridine], the “effect on KCNQ channels” value with KCNQ channels is listed as “potent KCNQ inhibiting compounds”. Besides, the “effect on BK channels” value at BK channels is given as “no effect”.
On to `O=C1c2ccccc2C(Cc2ccncc2)(Cc2ccncc2)c2ccccc21` [XE-991], for which, on KCNQ5 (FIG. 4), the “reversibility of inhibition of KCNQ5 currents” value is on record as “not fully reversible”. Also, the “effect on KCNQ channels” value in the experiment on KCNQ channels is given as “potent KCNQ inhibiting compounds”. Further, the “membrane potential after addition of compound” value at KCNQ4 [2] is −12 mV. Also, the “return of membrane potential upon washout” value at KCNQ4 [2] (after 10 μM compound) is listed as “returned very slowly towards the control level”. Moreover, the “effect on BK channels” value on BK channels was “no effect”.
